Earlier results on 10 molecules are cited in US20240342237A1, “COMPOSITION AND METHODS OF TREATMENT USING TRANSDERMAL SUPPLEMENTATION” (Xygenyx Inc., priority 2023, published 2024).

The conditions of series [1]: in vivo.
For series [2] the following is noted: compared to α-tocopherol = 1.0.
For series [3], the system named is skin. The note with it: topical formulations, within four weeks of treatment.
Series [4] deals with wide dynamic range neurons in the ventroposterolateral nucleus of the thalamus. The note with it: in vivo.
Series [5] concerns skin. The note with it: as penetration enhancer.
The test system of series [6] is skin. The note with it: topical application, concentrations 0.5-5%.
The conditions of series [7]: dietary intake in equal portions.

Square brackets hold non-standard residues; d marks the D form. Peptide text beside a SMILES is read from it. Cit = NC(=O)NCCC[C@H](N)C(=O)O Where only a bound is given, the exact number is not on record here.

Take “HGH: hormone comprising a peptide chain that is synthesized in the pituitary gland”: the biological half-life in series [1] was 10-20 minutes.
Take `Cc1cc(O)c(C)c2c1O[C@](C)(CCC[C@H](C)CCC[C@H](C)CCCC(C)C)CC2` [β-tocopherol]: the relative biological activity in series [2] is on record as 0.5.
With `Cc1c(C)c2c(c(C)c1O)CC[C@@](C)(CCC[C@H](C)CCC[C@H](C)CCCC(C)C)O2` [α-tocopherol], the “reduction of risk of coronary disease” value (dietary supplementation, doses up to 400 IU/day) was “up to 34%”. Also, where the note is “dietary supplementation, doses up to 400 IU/day, controlled trials”, the “reduction of risk of developing neurodegenerative diseases such as Alzheimer's Syndrome or dementia” value was ≤ 24%. For the same molecule, the “reduction in the development of age-related cataracts” value (in combination with 10-20 mg β-carotene and 400-500 mg vitamin C, doses around 400-500 IU) was 23%.
As for `CC[C@H](C)[C@H](NC(=O)[C@H](CC(=O)O)NC(=O)[C@@H](N)CCCCN)C(=O)N[C@@H](CCCNC(N)=O)C(N)=O` [tripeptide-10 citrulline, Tripeptide-10 citrulline] (H-KDI[Cit]-NH2), in the series with skin [3], the improvement of suppleness is reported as ≤ 54%.
For the molecule `CCCCCc1cc(O)c2c(c1)OC(C)(C)C1CCC(C)=CC21` (stereo not shown) [THC, Δ-9-tetrahydrocannabinol], the “power in mediating pain relative to morphine” value in series [4] is listed as “ten times more powerful than morphine”.
With `CC(C)[C@@H]1CC[C@@H](C)C[C@H]1O` [Menthol], in the series on skin [5], the “factor of increase of transdermal drug uptake” value is ≥ 10.
In the case of `CC12CCC(CC1)C(C)(C)O2` [eucalyptol, 1,8-epoxy-p-menthane], the “factor of increase of transdermal drug uptake” value in the series with skin [5] is recorded as “more than 10”.
For `C=CCCCCCCCCC(=O)N[C@@H](Cc1ccccc1)C(=O)O` [UP, Undecylenoyl phenylalanine], the “time to skin lightening effects” value with skin [6] was ≥ 7 days.
With `Cc1c(O)cc2c(c1C)O[C@](C)(CCC[C@H](C)CCC[C@H](C)CCCC(C)C)CC2` [γ-tocopherol], the relative biological activity in series [2] is reported as 0.1. In addition, the “concentration in vivo relative to α-tocopherol” value in series [7] was “roughly 10%”.
As to `Cc1cc(O)cc2c1O[C@](C)(CCC[C@H](C)CCC[C@H](C)CCCC(C)C)CC2` [δ-tocopherol], in series [2], the relative biological activity is listed as 0.03.
